According to patent US20050037067A1, “3,7-Diazabicyclo [3.3.1]formulations as anti-arrhythmic compounds” (priority 2001, published 2005):
Structures can show the parent of a compound that is named as a salt.

Assay: Solubility of the salt in vehicle compared to water alone
Assay type: physicochemical
Description: Salt was dissolved in the 40/60 (w/w %) hydroxypropyl-β-cyclodextrin/water vehicle.
The solubility of the salt was almost 40 times higher in this vehicle compared to water alone.
Salt was dissolved in PEG 400, ethanol and the surfactant Solutol™ (BASF; comprises polyethylene glycol esters of 12-OH-stearic acid). Water was added to the final volume. The solubility of the benzenesulphonate salt was approximately 4 times higher in this vehicle than it is in water alone.

## CC(C)(C)C(=O)CN1CC2CN(CCCNc3ccc(C#N)cc3)CC(C1)O2 [Compound A, benzenesulphonic acid salt, 4-({3-[7-(3,3-dimethyl-2-oxobutyl)-9-oxa-3,7-diazabicyclo[3.3.1]non-3-yl]propyl}amino)benzonitrile]
Vehicle Polyethyleneglycol 400/Ethanol/Solutol/Water (40/10/5/45 w/w %)
  solubility in vehicle compared to water alone: approximately 4 times
Vehicle hydroxypropyl-β-cyclodextrin/water (40/60 w/w %)
  solubility in vehicle compared to water alone: ~40 times
